Results reported in patent US12673120B2, “Fluorescently-traceable amino acid derivative and preparation methods and use thereof” (priority 2020, dated 2026).

Tests used:
[1] = system: S180 (mouse ascites tumor cells); test: In vitro anti-tumor cell proliferation activity (MTT method), S180; format: cell-based; conditions: S180; 48 h; Mean ± SD; read-out: IC50 values of in vitro anti-cell proliferation activity
Experimental: (§2) Tested cell lines S180 (mouse ascites tumor cells), LLC (mouse lung cancer cells), A549 (human non-small cell lung cancer cells), HCT116 (human colon cancer cells), U2Os (human osteosarcoma cells), and MCF-7 (human breast cancer cells) each were purchased from Nanjing KeyGen Biotech.
(§3) When preparing a test sample, the test compound was prepared into a sample solution with a concentration of 500 μM (with a final concentration 100 μM) by a PBS buffer containing 0.5% DMSO, which was used for preliminary screening of an anti-cell proliferation experiment in vitro.
(§4) Positive control group: doxorubicin, prepared to a required concentration with PBS buffer containing 0.5% DMSO; negative control group: a PBS buffer containing 0.5% DMSO; blank group: a PBS buffer containing 0.01% DMSO.

[2] = system: LLC (mouse lung cancer cells); test: In vitro anti-tumor cell proliferation activity (MTT method), LLC; format: cell-based; conditions: LLC; 48 h; Mean ± SD; read-out: IC50 values of in vitro anti-cell proliferation activity
Experimental: as §2, §3, §4

[3] = system: A549 (human non-small cell lung cancer cells); test: In vitro anti-tumor cell proliferation activity (MTT method), A549; format: cell-based; conditions: A549; 48 h; Mean ± SD; read-out: IC50 values of in vitro anti-cell proliferation activity
Experimental: as §2, §3, §4

[4] = system: HCT116 (human colon cancer cells); test: In vitro anti-tumor cell proliferation activity (MTT method), HCT116; format: cell-based; conditions: HCT116; 48 h; Mean ± SD; read-out: IC50 values of in vitro anti-cell proliferation activity
Experimental: as §2, §3, §4

[5] = system: U2Os (human osteosarcoma cells); test: In vitro anti-tumor cell proliferation activity (MTT method), U2Os; format: cell-based; conditions: U2Os; 48 h; Mean ± SD; read-out: IC50 values of in vitro anti-cell proliferation activity
Experimental: as §2, §3, §4

[6] = system: MCF-7 (human breast cancer cells); test: In vitro anti-tumor cell proliferation activity (MTT method), MCF-7; format: cell-based; conditions: MCF-7; 48 h; Mean ± SD; read-out: IC50 values of in vitro anti-cell proliferation activity
Experimental: as §2, §3, §4

[7] = system: mouse S180 sarcoma model; test: Inhibition of tumor growth in vivo (mouse S180 sarcoma model); set-up: species or system male ICR mice; conditions: for Average tumor weight: Mean ± SD, n 10
Experimental: The mice used in the experiment were male ICR mice of SPF grade, weighing 20 g±2 g, purchased from Beijing Vital River Laboratory Animal Technology Co., Ltd., and raised in an animal barrier of the Experimental Animal Department of Capital Medical University.
(§1) The specific method included: drugs were administered to tumor-forming mice by group for 7 consecutive days, a length of the tumor was measured every other day to calculate a tumor volume. 24 h after the last administration, the mice were weighed, anesthetized with diethyl ether, and eyeballs were removed to collect blood; the obtained whole blood was centrifuged at 1,000 rpm for 10 min, and a serum was absorbed for later use. The mice were sacrificed by neck dislocation, and the tumor mass and various organs were stripped and weighed (it was ensured that the operation was done as soon as possible and the stripping was complete and clean). The tumor inhibition rate was calculated by formula b, the results were shown in Table 2 and FIG. 2; and by calculating a viscera-weight ratio of each organ, and it was analyzed whether the test compound had obvious physiological effects on the mouse organs.

[8] = Viscera-weight ratio / toxicity in tumor-bearing mice; format: in vivo, male ICR mice
Experimental: as §1
After a preliminary study on the in vivo anti-tumor growth activity of different amino acid main compounds, ZD-A, ZD-B, ZD-E-1, and ZD-E-1 with an increased side-chain methylene unit (ZD-F-1) were selected; three dosages of 10 μmol/kg, 5 μmol/kg, and 2 μmol/kg were set to evaluate the inhibitory ability of the four compounds on tumor growth in mice. […] Afterwards, the tumor growth trend and the viscera-weight ratio of the two compounds on mice were analyzed to compare the anti-tumor growth ability and toxicity of the two compounds. The results were shown in FIG. 4 and FIG. 5: after one-way analysis of variance, * meant that compared with the Vehicle group, there was a difference, P<0.05; ** represented a significant difference compared with the Vehicle group, P<0.01.

[9] = Nanomorphology characterization and stability (TEM, SEM, hydration particle size, Zeta potential); format: physicochemical
Excerpt: The nanomorphology of compounds ZD-B and ZD-E-1 were studied by TEM and SEM, and hydration particle size and Zeta potential of the two compounds in a solution were studied by a nanometer particle size analyzer. The results were shown in FIG. 1A-H. In FIG. 1A-H, FIG. 1A was a TEM image of the compound ZD-B; FIG. 1B was a TEM image of the compound ZD-E-1; FIG. 1C was a SEM image of the compound ZD-B; FIG. 1D was a SEM image of the compound ZD-E-1; FIG. 1E was a hydration particle size change curve of the compound ZD-B in solutions at different pH values within 72 h (0.5 h, 24 h, 48 h, and 72 h); FIG. 1F was a hydration particle size change curve of the compound ZD-E-1 in solutions at different pH solutions within 72 h; FIG. 1G was a Zeta potential change curve of the compound ZD-B in solutions at different pH values within 72 h; and FIG. 1H was a Zeta potential change curve of the compound ZD-E-1 in solutions at different pH values within 72 h.

[10] = Water solubility; format: physicochemical; conditions: decides the injection route
[11] = Table 2, 10 μmol/kg, ip, 7 consecutive days
[12] = three dosages 10, 5, 2 μmol/kg, iv

For `N=C(CCl)NCCC[C@H](Nc1ccc([N+](=O)[O-])c2nonc12)C(=O)NCc1ccccc1` [ZD-E-1, (S)—N-benzyl-5-(2-chloroacetimido)-2-((7-nitro-2,1,3-benzoxadiazol-4-yl)amino)pentaneamide], the IC50 [1] was 24.6 ± 1.72 µM, the IC50 [2] was 26.1 ± 2.58 µM and the IC50 [3] was 45.5 ± 0.672 µM. It also gave an IC50 [4] of 22.6 ± 1.45 µM, an IC50 [5] of 28.8 ± 1.14 µM and an IC50 [6] of 40.5 ± 1.91 µM. The “Anti-tumor growth activity (in words)” value ([7]; 10 μmol/kg, ip) was “most prominent activities”, the “Average tumor weight compared with Vehicle group (one-way analysis of variance)” value ([7]; 10 μmol/kg, ip) was “significantly different from that of Vehicle group” and the “Tumor growth trend in mice” value ([7]; FIG. 4, ZD-E-1 versus ZD-F-1) was “roughly the same”. The Tumor Inhibition Rate [7, 11] was 40.01%, the Average tumor weight [7, 11] was 1.072 ± 0.386 g and the “Tumor Inhibition Rate” value ([7]; Table 3, 2 μmol/kg, iv) was 39.23%. The Average tumor weight ([7]; Table 3, 2 μmol/kg, iv) was 1.042 ± 0.205 g, the “Tumor Inhibition Rate” value ([7]; Table 3, 5 μmol/kg, iv) was 41.65% and the Average tumor weight ([7]; Table 3, 5 μmol/kg, iv) was 1.001 ± 0.196 g. The “Tumor Inhibition Rate” value ([7]; Table 3, 10 μmol/kg, iv) was 42.73%, the Average tumor weight ([7]; Table 3, 10 μmol/kg, iv) was 0.982 ± 0.300 g and the “Anti-tumor growth activity (in words)” value [7, 12] was “desirable and stable anti-tumor growth activity”. The “Average tumor weight compared with Vehicle group (one-way analysis of variance)” value [7, 12] was “significant differences compared with the Vehicle group”, the “Average tumor weight compared with the YW3-56 group” value [7, 12] was “no difference compared with the YW3-56 group” and the “Effect on liver weight (viscera-weight ratio) compared with Vehicle group” value ([8]; FIG. 5, ZD-E-1 at high dosages (10 μmol/kg and 5 μmol/kg)) was “different from those in the Vehicle group”. For the same compound, the “Effect on brain weight (viscera-weight ratio) compared with Vehicle group” value ([8]; FIG. 5, ZD-E-1 at three dosages) was “different from those in the Vehicle group”, the Toxic side effects ([8]; mice, compared with ZD-F-1) was “more obvious toxic side effects, causing liver failure and brain lesions in mice” and the “Nanomorphology (shape)” value ([9]; TEM and SEM) was “shape of a ball”. For the same compound, the “Hydration particle size change” value ([9]; pH=2.0, measured continuously for 72 h) was “particle size hardly changed”, the “Hydration particle size change” value ([9]; pH=5.5, measured continuously for 72 h) was “particle size increased and then decreased” and the Hydration particle size ([9]; pH=7.0 versus other pH values, 72 h) was “smallest particle size at pH=7.0”. The Zeta potential change ([9]; solutions at different pH values, measured continuously for 72 h) was “neither ZD-B nor ZD-E-1 had an obvious change” and the Water solubility [10] was “had no such concerns”.
